Data: patent US9415067B2, “Genetic test for liver copper accumulation in dogs and low copper pet diet” (Mars, Inc., priority 2009, dated 2016)

Legend:
[1] = test system: canine dermal fibroblast cells ATP7A^C/C, ATP7A^C/T, ATP7A^T/T; experiment: 64Cu incorporation and efflux (washout) in canine primary dermal fibroblasts, gamma counting; type: cell-based, dog; details: 100 μM
Protocol: FIGS. 7A and 7B show copper isotope measurements in canine primary fibroblast cells. Copper isotope (64Cu) measurements in ATP7A^C/C, ATP7A^C/T and ATP7A^T/T cells after (A) 24 h or 48 h incubation with 10 μM, 50 μM and 100 μM 64Cu, or (B) 24 hrs incubation, followed by extensive washing and incubation in non copper isotope media for 2 h. Gamma-counts were corrected for cell culture conditions by means of a protein and MTS assay. Data points for 24 hr incubation represent the mean+/−SEM from two independent experiments performed in duplicate and expressed as counts per minute (cpm) of total cell protein. Other data points represent mean+/−SEM from one experiment in duplicate.
The canine dermal fibroblast cells CDFIB44, CDFIB62 and CDFIB111 were isolated from euthanized female Labradors. Blood samples, taken prior to euthanizing were subject to the genetic test of the invention to ascertain increased risk to the disease. CDFIB111 was homozygous for the ATP7A SNP and CDFIB62 was heterozygote. […] was used as a control. […]
For copper treatment, cells were incubated in 10, 50, and 100 μM copper for 24 or 48 h. […] Emission was measured in individual tubes containing media, washing steps, or lysate in a Packard B5003 gamma counter (Packard BioScience Benelux, Groningen, the Netherlands) between 450 and 800 keV for 2 minutes. […] Cells were then analysed for copper as described above. Copper accumulation was normalized to the protein concentration of the cell lysate (quantified using a Bio Rad Protein Assay Kit, Bio Rad) and an MTS colorimetric assay (3-[4,5-dimethylthiazol-2-yl]-5-[3-carboxymethoxyphenyl]-2-[4-sulfophenyl]-2H-tetrazolium) (Promega) was run in parallel. This quantitative assay detects living but not dead cells. The absorbance at 490 nm (test wavelength) and at 650 nm (reference wavelength) was measured using an enzyme-linked immunosorbent assay microplate reader (Bio-Rad); wells containing culture medium but no cells served as blanks. […]

[2] = test system: hepatic copper accumulation; experiment: Diet trial with randomized placebo-controlled zinc application: quantitative hepatic copper by neutron activation analysis of liver biopsies; type: in vivo, dog
Protocol: All dogs were fed the same diet. […] The pharmacist was the only person aware of group allocations until completion of the study. Hepatic copper concentrations and histopathology were assessed along with clinical examinations and blood-work before and after treatment for a mean of 8 months (range 5-13), and 16 months (range 12-25). Plasma zinc concentrations were measured at additional time points during treatment.
All dogs had completed their treatment with penicillamine prior to the start of this study. A medical history was obtained from all dogs and a physical examination was performed. […] Two biopsies were fixed in 10 percent neutral buffered formalin, and one biopsy was stored in a copper-free container for quantitative copper determination.
A quantitative assay for copper in liver tissue was performed by neutron activation analysis, according to a protocol described by Teske et al, using the facilities described by Bode (Bode, P. (1990) Journal of Trace and Microprobe Techniques 8: 139; Teske et al. (1992) Vet Rec 131: 30-32). Quantitative copper concentrations were measured in lyophilised liver biopsies and reported in mg/kg dry weight liver.
All dog owners were provided with the same specially manufactured diet. […] Metabolizable energy (measured according to Association of American Feed Control Officials protocol): 1650 kcal/kg as fed). […]

[3] = Pharmacokinetic study of oral zinc gluconate, plasma zinc by atomic absorption spectrometry; type: in vivo; details: mean of dog 1 and dog 2
Protocol: Two unrelated nine-year old, healthy Labrador Retrievers (1 female and 1 male) were used in a pharmacokinetic study. Food was withheld for a 12-hour period prior to oral administration of zinc, and during the initial 6-hour testing period. Water was freely available. […] Heparinized blood samples (4 ml) were collected from the jugular vein before dosing (time 0) and 15, 30, 45, 60, 90, 120 minutes, and 4, 8, 12 and 24 hours after application of the drug. Plasma was stored at −20° C. until analysis for zinc using atomic absorption spectrometry.
In addition the test was used to detect a difference between group-1 and group-2 before the study, at recheck-1, and at recheck-2 (significance level p<0.05).

[4] = test system: hepatic copper accumulation; experiment: Example 7: hepatic copper before penicillamine, after penicillamine and after diet; type: in vivo, dog; details: all dogs fed the diet of Example 6, data not shown
Protocol: FIG. 3 illustrates the effectiveness of the diet of the invention on hepatic copper concentrations (mg/kg dry weight) in 18 Labrador Retrievers compared with the effect of penicillamine alone. The key to the x-axis is as follows: 1=pre-penicillamine, 2=post-penicillamine/pre-food, 3=post-food. […] The dotted line represents the normal level of hepatic copper for adult dogs.
During an investigation of the effect of zinc on hepatic copper concentration, hepatic copper concentration was measured in 18 pure-bred Labrador Retrievers. Half of the dogs were provided with a supplement of zinc and the other half were provided with a placebo. All of the dogs were fed the diet of Example 6. Hepatic copper 25 concentration was measured using the method of Example 6 at 3 time points: (1) before treatment with penicillamine; (2) after treatment with penicillamine but before treatment with the diet of Example 6; and (3) after the diet treatment.

[5] = 24 h incubation, 2 h of washout

[64Cu] [Cu64]
isotope retained by ATP7A^C/C cells [1, 5]: approximately 45%
isotope retained by ATP7A^T/T cells [1, 5]: ~90%
increase in incorporation of copper in ATP7A^T/T and ATP7A^C/T cells compared to ATP7A^C/C cells ([1]; after 24 h and 48 h): approximately two-fold

CC(C)(S)[C@@H](N)C(=O)O [penicillamine]
mean hepatic copper concentration after completion of treatment with penicillamine ([2]; 24 Labradors at the start of the diet trial, reference range 400 mg/kg dry weight): 894 mg/kg dry weight

zinc gluconate
apparent oral clearance (CL/F) [3]: 2.116898 mL/min/kg
effect of adjunctive zinc on the de-coppering effect of the diet ([2]; diet + zinc gluconate 7.5 mg/kg PO BID versus diet + placebo): did not amplify the de-coppering effect
difference between copper levels in dogs treated with zinc and with the placebo [4]: no significant difference
